Assay results as given in paper PMC6128854 (Scientific Reports, 2018).
Positions of bridges follow the written chain, without caps; N, C: chain ends. Non-standard residues stand in square brackets, D forms with d. Residues, ends and D or L forms follow the SMILES beside them. Hyp = O=C(O)[C@@H]1C[C@@H](O)CN1

Biological target: N-type calcium channel currents (Cav2.2) in rDRG neurons (Rattus norvegicus, UniProt Q02294)
Test: cell-based
Conditions: SEM

Chain of N-type calcium channel currents (Cav2.2) in rDRG neurons (Q02294 whole entry, looked up): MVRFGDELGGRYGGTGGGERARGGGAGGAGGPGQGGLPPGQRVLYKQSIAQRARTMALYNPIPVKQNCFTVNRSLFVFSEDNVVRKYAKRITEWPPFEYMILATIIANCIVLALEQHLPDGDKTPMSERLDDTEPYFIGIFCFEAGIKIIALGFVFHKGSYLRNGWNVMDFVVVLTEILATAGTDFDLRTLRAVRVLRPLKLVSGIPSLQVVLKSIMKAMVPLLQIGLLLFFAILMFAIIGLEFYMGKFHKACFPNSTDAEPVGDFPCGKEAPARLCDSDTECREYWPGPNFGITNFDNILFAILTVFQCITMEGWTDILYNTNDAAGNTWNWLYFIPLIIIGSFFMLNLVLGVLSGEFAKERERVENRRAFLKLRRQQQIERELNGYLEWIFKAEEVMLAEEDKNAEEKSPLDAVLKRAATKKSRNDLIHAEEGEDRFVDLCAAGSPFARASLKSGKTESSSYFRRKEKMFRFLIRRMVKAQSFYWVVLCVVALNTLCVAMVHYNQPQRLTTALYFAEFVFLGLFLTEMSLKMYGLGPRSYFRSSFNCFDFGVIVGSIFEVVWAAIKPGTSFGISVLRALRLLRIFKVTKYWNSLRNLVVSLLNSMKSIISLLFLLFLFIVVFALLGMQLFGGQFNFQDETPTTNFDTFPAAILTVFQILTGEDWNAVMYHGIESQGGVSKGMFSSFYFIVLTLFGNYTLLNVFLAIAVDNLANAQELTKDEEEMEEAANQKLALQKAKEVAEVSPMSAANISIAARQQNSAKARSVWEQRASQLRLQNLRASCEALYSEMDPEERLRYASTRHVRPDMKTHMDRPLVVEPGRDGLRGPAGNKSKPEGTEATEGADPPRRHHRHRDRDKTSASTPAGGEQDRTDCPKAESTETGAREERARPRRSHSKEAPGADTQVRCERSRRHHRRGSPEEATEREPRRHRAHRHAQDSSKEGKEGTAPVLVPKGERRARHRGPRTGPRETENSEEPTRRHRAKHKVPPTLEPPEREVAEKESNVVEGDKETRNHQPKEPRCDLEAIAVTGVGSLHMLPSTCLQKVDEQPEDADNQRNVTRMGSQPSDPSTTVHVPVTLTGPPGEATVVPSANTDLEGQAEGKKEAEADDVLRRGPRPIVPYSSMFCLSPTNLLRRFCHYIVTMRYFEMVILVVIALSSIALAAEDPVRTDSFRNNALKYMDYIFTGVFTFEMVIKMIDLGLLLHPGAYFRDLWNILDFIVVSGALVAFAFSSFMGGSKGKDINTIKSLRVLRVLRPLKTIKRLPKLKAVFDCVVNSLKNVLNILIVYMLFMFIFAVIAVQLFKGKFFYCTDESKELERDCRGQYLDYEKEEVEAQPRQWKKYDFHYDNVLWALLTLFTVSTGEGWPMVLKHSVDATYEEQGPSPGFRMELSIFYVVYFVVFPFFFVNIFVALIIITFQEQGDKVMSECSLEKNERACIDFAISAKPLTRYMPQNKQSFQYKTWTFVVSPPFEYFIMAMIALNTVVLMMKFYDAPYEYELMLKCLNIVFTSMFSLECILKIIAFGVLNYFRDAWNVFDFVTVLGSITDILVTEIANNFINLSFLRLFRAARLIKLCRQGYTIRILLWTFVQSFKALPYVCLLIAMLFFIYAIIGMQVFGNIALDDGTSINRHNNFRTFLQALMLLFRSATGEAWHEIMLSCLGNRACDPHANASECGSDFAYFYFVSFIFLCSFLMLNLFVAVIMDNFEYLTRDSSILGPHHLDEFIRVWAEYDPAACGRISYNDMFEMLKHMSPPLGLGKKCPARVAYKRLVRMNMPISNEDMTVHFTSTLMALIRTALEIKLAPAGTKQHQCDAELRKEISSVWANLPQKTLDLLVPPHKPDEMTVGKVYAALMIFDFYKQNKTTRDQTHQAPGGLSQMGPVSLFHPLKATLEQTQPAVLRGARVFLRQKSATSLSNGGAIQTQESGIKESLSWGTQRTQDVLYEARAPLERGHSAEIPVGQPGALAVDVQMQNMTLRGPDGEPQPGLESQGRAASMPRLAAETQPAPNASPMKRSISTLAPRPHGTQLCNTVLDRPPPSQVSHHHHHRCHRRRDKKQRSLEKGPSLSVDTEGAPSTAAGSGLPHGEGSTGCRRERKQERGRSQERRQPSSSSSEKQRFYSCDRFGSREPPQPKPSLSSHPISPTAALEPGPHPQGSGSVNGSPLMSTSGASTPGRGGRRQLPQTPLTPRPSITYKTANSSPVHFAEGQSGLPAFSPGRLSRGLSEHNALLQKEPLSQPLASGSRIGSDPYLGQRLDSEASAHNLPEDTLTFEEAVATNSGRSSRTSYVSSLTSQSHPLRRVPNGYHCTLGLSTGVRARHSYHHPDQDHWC

In the case of `CC[C@H](C)[C@@H]1NC(=O)[C@@H]2CSSC[C@@H]3NC(=O)[C@H](CCCCN)NC(=O)[C@H](CO)NC(=O)CNC(=O)[C@@H]4C[C@@H](O)CN4C(=O)[C@@H]4CCCN4C(=O)[C@H](CCCCN)NC(=O)[C@@H](N)CSSC[C@H](NC(=O)[C@H](CSSC[C@@H](C(=O)N[C@@H](CCCNC(=N)N)C(=O)N[C@@H](CCCCN)C(=O)N[C@@H](Cc4ccc(O)cc4)C(=O)N[C@@H](Cc4ccc(O)cc4)C(=O)O)NC(=O)[C@H](CCCNC(=N)N)NC(=O)[C@H](CCCCN)NC(=O)[C@H]([C@@H](C)O)NC(=O)[C@H](Cc4ccc(O)cc4)NC(=O)[C@H](CO)NC1=O)NC(=O)[C@H](CC(=O)O)NC(=O)[C@H](Cc1ccc(O)cc1)NC(=O)[C@H](CCSC)NC(=O)[C@H](CO)NC(=O)[C@@H]1C[C@@H](O)CN1C(=O)[C@H](CO)NC3=O)C(=O)N[C@@H]([C@@H](C)O)C(=O)N[C@@H]([C@@H](C)O)C(=O)N2` [MoVIB-[R13Y]] (H-CKP[Hyp]GSKCS[Hyp]SMYDCCTTCISYTKRCRKYY-OH; disulfide 1-16, 8-19, 15-26), the IC50 is reported as 900 ± 130 nM.
